Legend:
Type in all cases: functional, organism-based
[1] = tested on: Pseudomonas aeruginosa; experiment: Antibiofilm activity against Pseudomonas aeruginosa PAO1 assessed as inhibition of biofilm formation incubated for 24 hrs by crystal violet staining based assay; conditions: PAO1, 24 h
[2] = tested on: Lysinibacillus; experiment: Growth inhibition of Lysinibacillus isolate Eys09 after 24 hrs; conditions: isolate Eys09, 24 h
[3] = tested on: Kocuria; experiment: Growth inhibition of Kocuria isolate Eys10 after 24 hrs; conditions: isolate Eys10, 24 h
[4] = tested on: Pseudomonas sp. NB86; experiment: Growth inhibition of Pseudomonas sp. NB86 after 24 hrs; conditions: Pseudomonas sp. NB86, 24 h
[5] = tested on: Sporosarcina sp. NB90; experiment: Growth inhibition of Sporosarcina sp. NB90 after 24 hrs; conditions: Sporosarcina sp. NB90, 24 h
[6] = tested on: Pseudomonas sp.; experiment: Growth inhibition of Pseudomonas sp. isolate ISP2_16 after 24 hrs; conditions: isolate ISP2_16, 24 h
[7] = tested on: Pseudomonas sp.; experiment: Growth inhibition of Pseudomonas sp. isolate ISP2_Ab after 24 hrs
[8] = tested on: Pseudomonas sp.; experiment: Growth inhibition of Pseudomonas sp. isolate ISP2_A10pp after 24 hrs
[9] = tested on: Bacillus sp.; experiment: Growth inhibition of Bacillus sp. isolate ISP2_A_B after 24 hrs; conditions: Bacillus sp. (in: firmicutes)
[10] = tested on: Lysinibacillus; experiment: Antibiofilm activity against Lysinibacillus isolate Eys09 assessed as inhibition of biofilm formation incubated for 24 hrs by crystal violet staining based assay; conditions: isolate Eys09, 24 h
[11] = tested on: Kocuria; experiment: Antibiofilm activity against Kocuria isolate Eys10 assessed as inhibition of biofilm formation incubated for 24 hrs by crystal violet staining based assay; conditions: isolate Eys10, 24 h
[12] = tested on: Pseudomonas sp. NB86; experiment: Antibiofilm activity against Pseudomonas sp. NB86 assessed as inhibition of biofilm formation incubated for 24 hrs by crystal violet staining based assay; conditions: Pseudomonas sp. NB86, 24 h
[13] = tested on: Pseudomonas sp.; experiment: Antibiofilm activity against Pseudomonas sp. isolate ISP2_16 assessed as inhibition of biofilm formation incubated for 24 hrs by crystal violet staining based assay; conditions: isolate ISP2_16, 24 h
[14] = tested on: Pseudomonas sp.; experiment: Antibiofilm activity against Pseudomonas sp. isolate ISP2_Ab assessed as inhibition of biofilm formation incubated for 24 hrs by crystal violet staining based assay
[15] = tested on: Pseudomonas sp.; experiment: Antibiofilm activity against Pseudomonas sp. isolate ISP2_A10pp assessed as inhibition of biofilm formation incubated for 24 hrs by crystal violet staining based assay

IC50 [1] [µM] | IC50 [10] [µM] | IC50 [11] [µM] | IC50 [12] [µM] | IC50 [13] [µM] | IC50 [14] [µM] | IC50 [15] [µM] | SMILES | IC50 [2] [µM] | IC50 [3] [µM] | IC50 [4] [µM] | IC50 [5] [µM] | IC50 [6] [µM] | IC50 [7] [µM] | IC50 [8] [µM] | IC50 [9] [µM]
10 |  |  |  |  |  |  | Nc1nc2c([nH]1)c1c(c3[nH]c(N)nc32)[C@H](CNC(=O)c2cc(Br)c(Br)[nH]2)[C@H]1CNC(=O)c1cc(Br)c(Br)[nH]1 [BENZOSCEPTRIN C] |  |  |  |  |  |  |  | 
5.1 | 7.7 | 10 | 57 | 39 | 3.9 | 10 | Nc1ncc(/C=C/CNC(=O)c2cc(Br)c(Br)[nH]2)[nH]1 [OROIDIN] | 77 | 51 | 330 | 31 | 170 | 310 | 150 | 39
15 |  |  |  |  |  |  | NC(=O)c1cc(Br)c(Br)[nH]1 |  |  |  |  |  |  |  | 

Source: ChEMBL document CHEMBL4602688, “Bromopyrrole Alkaloids of the Sponge Agelas oroides Collected Near the Israeli Mediterranean Coastline” (J Nat Prod, 2020)
